Experiments:
[1] = biological target: T1, Acyl-CoA:cholesterol acyltransferase (Oryctolagus cuniculus, UniProt Q95214); experiment: In vitro inhibitory activity towards acyl CoA cholesterol acyltransferase (ACAT) of cholesterol-fed rabbits by the displacement of [14C]oleolyl-CoA
T1 sequence (Q95214 whole entry): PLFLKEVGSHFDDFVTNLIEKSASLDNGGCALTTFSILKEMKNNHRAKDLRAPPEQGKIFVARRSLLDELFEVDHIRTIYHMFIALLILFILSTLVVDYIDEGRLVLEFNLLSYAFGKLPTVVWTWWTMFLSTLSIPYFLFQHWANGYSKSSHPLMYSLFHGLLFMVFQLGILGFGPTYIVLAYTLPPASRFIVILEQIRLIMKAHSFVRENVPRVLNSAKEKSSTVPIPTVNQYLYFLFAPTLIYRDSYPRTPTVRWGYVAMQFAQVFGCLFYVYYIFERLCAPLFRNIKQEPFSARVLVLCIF

Cricetinae gen. sp. = experiment: Compound was tested in vivo at a dose of 10 (mg/kg) for percent inhibition in increased serum total cholesterol in golden hamsters fed with a diet containing 2% cholesterol; type: functional, Mesocricetus auratus
[2] = biological target: T2, Acyl-CoA:cholesterol acyltransferase (Oryctolagus cuniculus) (UniProt Q95214); experiment: In vitro inhibitory activity towards acyl CoA cholesterol acyltransferase (ACAT) of cholesterol-fed rabbits by the displacement of [14C]oleolyl-CoA at 1 uM
T2 sequence (whole entry): T1 sequence (Q95214 whole entry)

Structure (SMILES)	IC50 [1] [µM]	inhibition [2] [%]	Reduction (Cricetinae gen. sp.) [%]
CC(C)c1cccc(C(C)C)c1NC(=O)Nc1nc2ccccc2n1-c1ccccc1	0.066		
Cc1cccc(C)c1NC(=O)Nc1nc2ccccc2n1-c1ccccc1Cl	0.42		
Cc1cc(C)c(NC(=O)Nc2nc3ccccc3n2-c2c(Cl)cccc2Cl)c(C)c1		24	
O=C(Nc1ccc(F)cc1F)Nc1nc2ccccc2n1-c1ccccc1Cl		27	
CC(C)c1cccc(C(C)C)c1NC(=O)Nc1nc2ccccc2n1-c1ccc(Cl)cc1	0.28		
Cc1ncccc1-n1c(NC(=O)Nc2c(C(C)C)cccc2C(C)C)nc2ccccc21	0.1		
CC(C)c1cccc(C(C)C)c1NC(=O)Nc1nc2ccccc2n1-c1cc(C(=O)O)ccc1Cl		2	
CC(C)c1cccc(C(C)C)c1NC(=O)Nc1nc2ccccc2n1-c1ccccc1C(F)(F)F	0.072		
CC(C)c1cccc(C(C)C)c1NC(=O)Nc1nc2ccccc2n1-c1ncccc1Cl	0.1		
CC(C)c1cccc(C(C)C)c1NC(=O)Nc1nc2ccccc2n1-c1ccccc1O	0.2		

More lines, in order of falling IC50 [1], values ahead:

IC50 [1] [µM]	inhibition [2] [%]	Structure (SMILES)	Reduction (Cricetinae gen. sp.) [%]
0.041		CC(C)c1cccc(C(C)C)c1NC(=O)Nc1nc2ccccc2n1-c1ccccc1N(C)C	102
0.033		CC(C)c1cccc(C(C)C)c1NC(=O)Nc1nc2cccnc2n1-c1ccccc1Cl	76
0.022		CC(C)c1cccc(C(C)C)c1NC(=O)Nc1nc2ccccc2n1-c1ccccc1Br	37
0.02		CC(C)c1cccc(C(C)C)c1NC(=O)Nc1nc2ccccc2n1-c1cccc(Cl)c1	
0.02		COc1ccccc1-n1c(NC(=O)Nc2c(C(C)C)cccc2C(C)C)nc2ccccc21	
0.019		Cc1ccccc1-n1c(NC(=O)Nc2c(C(C)C)cccc2C(C)C)nc2ccccc21	
0.018		CC(C)c1cccc(C(C)C)c1NC(=O)Nc1nc2ccccc2n1-c1ccccc1Cl	80
0.011		CC(C)c1cccc(C(C)C)c1NC(=O)Nc1nc2ccccc2n1-c1c(Cl)cccc1Cl	74

From ChEMBL document CHEMBL1152048, “N-(1-phenyl-2-benzimidazolyl)-N-phenylurea derivatives as potent in hibitors of acylcoa:cholesterol acyltransferase (ACAT)” (Bioorg Med Chem Lett, 1995)
